Values of other authors, collected in patent US10751328B2, “Therapy for chronic idiopathic urticaria, anaphylaxis and angioedema” (priority 2013, dated 2020).
One block for each compound: values may come before it.

Tests used:
[1] = test system: white blood cell counts (eosinophil, basophils); settings: ALS subjects, 150 mg twice daily up to 18 months, monthly CBCs; FIGS. 1 to 4 (prior art poster)
wheal and flare reaction = settings: versus histamine
[2] = dihydrochloride monohydrate salt, crystalline
[3] = test system: chronic idiopathic urticaria symptoms; settings: patients with chronic idiopathic urticaria symptomatic despite approved doses of H1-antihistamines; 139 patients

Compound: CCCN[C@@H]1CCc2nc(N)sc2C1 [Dexpramipexole, (6R)-4,5,6,7-tetrahydro-N6-propyl-2,6 benzothiazole diamine]
effect on white blood cell counts [1]: reduce white blood cell counts, especially eosinophil and basophils

Compound: CCCCC/C=C\C\C=C/C=C/C=C/[C@@H](SC[C@H](NC(=O)CC[C@H](N)C(=O)O)C(=O)NCC(=O)O)[C@@H](O)CCCC(=O)O [LTC4, leukotriene C4]
potency relative to histamine in causing wheal and flare reaction (wheal and flare reaction): about 1,000 times

solubility in water [2]: extremely well soluble in water
Compound: CCCN[C@H]1CCc2nc(N)sc2C1 [pramipexole, (6S)-2-amino-4,5,6,7-tetrahydro-6-(propylamino)benzothiazole]

Compound: omalizumab: agent effective in chronic idiopathic urticaria through its reduction of FcεRI function in basophils and mast cells
effect on symptoms [3]: beneficial effects on symptoms
